Measured values published in US9113629B2, “4-amino-6-(4-substituted-phenyl)-picolinates and 6-amino-2-(4-substituted-phenyl)-pyrimidine-4-carboxylates and their use as herbicides” (DOW AGROSCIENCES LLC, priority 2013, dated 2015).
Read-outs that look alike come from different tables or passages of the source.

Key:
[1] = test system: Key Broadleaf Weed and Crop Species; experiment: Post-emergent Test II herbicidal activity (Table 5); assay type: in vivo; details: post-emergence, 336 h, post-emergent, 14 days after application; for pest or weed control at 70 g/ha: 70 g ai/ha; for pest or weed control at 140 g/ha: 140 g ai/ha
In short: (§1)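 Greenhouse-grown plants at first or second true leaf stage were sprayed post-emergence with compound in acetone/DMSO-based aqueous spray containing crop oil concentrate and surfactant, at 187 L/ha, highest rate plus ½× to 1/16× dilutions. After 14 d, injury was scored visually versus untreated plants, 0 (none) to 100% (complete kill).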

[2] = test system: Key Grass and Sedge Weeds as well as Grass Crops; experiment: Post-emergent Test II herbicidal activity (Table 6); assay type: in vivo; details: post-emergence, 336 h; for pest or weed control at 70 g/ha: application rate 70 g ai/ha; for pest or weed control at 140 g/ha: application rate 140 g ai/ha
In short: as §1

[3] = ABUTH: velvetleaf (Abutilon theophrasti), read-out: Visual Growth Reduction (%) 14 Days After Application ABUTH
[4] = AMARE: redroot pigweed (Amaranthus retroflexus), read-out: Visual Growth Reduction (%) 14 Days After Application AMARE
[5] = BRSNN: oilseed-rape, canola (Brassica napus), read-out: Visual Growth Reduction (%) 14 Days After Application BRSNN
[6] = CHEAL: lambsquarters (Chenopodium album), read-out: Visual Growth Reduction (%) 14 Days After Application CHEAL
[7] = EPHHL: wild poinsettia (Euphorbia heterophylla), read-out: Visual Growth Reduction (%) 14 Days After Application EPHHL
[8] = HELAN: sunflower (Helianthus annuus), read-out: Visual Growth Reduction (%) 14 Days After Application HELAN
[9] = VIOTR: wild pansy (Viola tricolor), read-out: Visual Growth Reduction (%) 14 Days After Application VIOTR
[10] = Triticum aestivum, TRZSS (wheat), read-out: Visual Growth Reduction (%) 14 Days After Application, TRZSS
[11] = CYPES: yellow nutsedge (Cyperus esculentus), read-out: Visual Growth Reduction (%) 14 Days After Application, CYPES
[12] = DIGSA: crabgrass (Digitaria sanguinalis), read-out: Visual Growth Reduction (%) 14 Days After Application, DIGSA
[13] = ECHCG: barnyardgrass (Echinochloa crus-galli), read-out: Visual Growth Reduction (%) 14 Days After Application, ECHCG
[14] = ORYSA: rice (Oryza sativa), read-out: Visual Growth Reduction (%) 14 Days After Application, ORYSA
[15] = SETFA: giant foxtail (Setaria faberi), read-out: Visual Growth Reduction (%) 14 Days After Application, SETFA
[16] = SORVU: grain sorghum (Sorghum vulgare), read-out: Visual Growth Reduction (%) 14 Days After Application, SORVU
[17] = ZEAMX: maize, corn (Zea mays), read-out: Visual Growth Reduction (%) 14 Days After Application, ZEAMX

Q: For `C=Cc1c(N)nc(-c2ccc(F)c(F)c2F)nc1C(=O)OC` [Compound 197, Methyl 6-amino-2-(2,3,4-trifluorophenyl)-5-vinylpyrimidine-4-carboxylate], which pest or weed control at 70 g/ha [1, 3] is on record?
A: Its pest or weed control at 70 g/ha is 95 to 100%.

Q: What about the pest or weed control at 140 g/ha [1, 3] of the same compound?
A: The pest or weed control at 140 g/ha was 95 to 100%.

Q: What about the pest or weed control at 70 g/ha [1, 4] of the same compound?
A: The pest or weed control at 70 g/ha was 95 to 100%.

Q: And the pest or weed control at 140 g/ha [1, 4]?
A: Its pest or weed control at 140 g/ha is 95 to 100%.

Q: What about the pest or weed control at 70 g/ha [1, 5] of the same compound?
A: The pest or weed control at 70 g/ha was 95 to 100%.

Q: What about the pest or weed control at 140 g/ha [1, 5] of the same compound?
A: Its pest or weed control at 140 g/ha is 85 to 94%.

Q: And the pest or weed control at 70 g/ha [1, 6]?
A: Its pest or weed control at 70 g/ha is 95 to 100%.

Q: What about the pest or weed control at 140 g/ha [1, 6] of the same compound?
A: Its pest or weed control at 140 g/ha is 95 to 100%.

Q: And the pest or weed control at 70 g/ha [1, 7]?
A: The pest or weed control at 70 g/ha was 95 to 100%.

Q: What about the pest or weed control at 140 g/ha [1, 7] of the same compound?
A: The pest or weed control at 140 g/ha was 95 to 100%.

Q: What about the pest or weed control at 70 g/ha [1, 8] of the same compound?
A: The pest or weed control at 70 g/ha was 85 to 94%.

Q: What about the pest or weed control at 140 g/ha [1, 8] of the same compound?
A: The pest or weed control at 140 g/ha was 85 to 94%.

Q: What about the pest or weed control at 70 g/ha [1, 9] of the same compound?
A: Its pest or weed control at 70 g/ha is 60 to 74%.

Q: And the pest or weed control at 140 g/ha [1, 9]?
A: The pest or weed control at 140 g/ha was 75 to 84%.

Q: And the pest or weed control at 70 g/ha [2, 10]?
A: Its pest or weed control at 70 g/ha is 0 to 29%.

Q: And the pest or weed control at 140 g/ha [2, 10]?
A: Its pest or weed control at 140 g/ha is 0 to 29%.

Q: And the pest or weed control at 70 g/ha [2, 11]?
A: The pest or weed control at 70 g/ha was 60 to 74%.

Q: What about the pest or weed control at 140 g/ha [2, 11] of the same compound?
A: The pest or weed control at 140 g/ha was 60 to 74%.

Q: And the pest or weed control at 70 g/ha [2, 12]?
A: The pest or weed control at 70 g/ha was 45 to 59%.

Q: And the pest or weed control at 140 g/ha [2, 12]?
A: The pest or weed control at 140 g/ha was 60 to 74%.

Q: What about the pest or weed control at 70 g/ha [2, 13] of the same compound?
A: Its pest or weed control at 70 g/ha is 0 to 29%.

Q: And the pest or weed control at 140 g/ha [2, 13]?
A: Its pest or weed control at 140 g/ha is 75 to 84%.

Q: What about the pest or weed control at 70 g/ha [2, 14] of the same compound?
A: Its pest or weed control at 70 g/ha is 0 to 29%.

Q: What about the pest or weed control at 140 g/ha [2, 14] of the same compound?
A: Its pest or weed control at 140 g/ha is 0 to 29%.

Q: What about the pest or weed control at 70 g/ha [2, 15] of the same compound?
A: Its pest or weed control at 70 g/ha is 0 to 29%.

Q: And the pest or weed control at 140 g/ha [2, 15]?
A: Its pest or weed control at 140 g/ha is 0 to 29%.

Q: What about the pest or weed control at 70 g/ha [2, 16] of the same compound?
A: The pest or weed control at 70 g/ha was 60 to 74%.

Q: And the pest or weed control at 140 g/ha [2, 16]?
A: Its pest or weed control at 140 g/ha is 60 to 74%.

Q: What about the pest or weed control at 70 g/ha [2, 17] of the same compound?
A: Its pest or weed control at 70 g/ha is 60 to 74%.

Q: And the pest or weed control at 140 g/ha [2, 17]?
A: The pest or weed control at 140 g/ha was 60 to 74%.

Q: What about the melting point of the same compound?
A: Its melting point is 156 to 158 °C.
